Test results from patent publication US12202805B2, “Process for preparing (5S)-{[2-(4-carboxyphenyl)ethyl] |2-(2-{|3-chloro-4'-(trifluoromethyl)biphenyl-4-yl]methoxy}phenyl)ethyl]aminol-5,6,7,8-tetrahydroquinoline-2-carboxylic acid and its crystalline forms for use as pharmaceutically active compound” (Bayer Aktiengesellschaft, priority 2021, dated 2025).

Legend:
[1] = Protein binding via Transil assay, minipig plasma; type: in vitro ADME; conditions: read-out: plasma fu (fraction unbound)
Experimental: (§1) Protein Binding of Comparative Example 11 and Comparative Example 1 was Analyzed Via Transil Assay, Described Below.
(§2) The distribution of a test substance between Transil® (phosphatidylcholine lipid bilayers immobilized on silica beads) and plasma is a characteristic feature of any pharmaceutical compound and is dependent on its extent of binding to plasma proteins. By comparing the distribution between Transil® and buffer with the distribution between Transil® and plasma of any species of interest, the unbound fraction in the plasma of the respective animal species can be calculated in vitro. The respective plasma and buffer concentrations were determined via a radioactivity analysis. A detailed description of the method and its validation was published by Schuhmacher et al. (2).

[2] = tested on: healthy male subjects; assay: E-2.1 bodyplethysmography: total specific airway resistance (sRaw) in healthy male subjects; type: in vivo, human
Experimental: Healthy White male subjects, aged 18 to 45 years and with a body mass index (BMI) above/equal 18.5 and below/equal 29.9 kg/m2 were treated in a clinical pharmacological phase I study on seven days with inhaled once daily doses of 480 μg or 1000 μg or 2000 μg (2 capsules of 1000 μg) (nominal dose) of dry powder formulations comprising example 2 or Placebo. The subjects inhaled the drug powder from capsules (see under C-1, e.g. tables 22 and 23) inserted into a handheld inhalation device by one deep inhalative breath. The dry powder formulation of the drug is dispersed into the airstream and fine particles are transported into the deep parts of the lung where it is intended to cause a vasodilation of the blood vessels in PH patients for a substantial reduction of increased blood pressure in the central pulmonary blood vessels in PAH patients or other subtypes of PH. This effect cannot be shown in subjects with healthy lungs. In addition inhaled drug causes a dilation of the bronchial airways and thus also improves disease states of lung diseases in PH patients with pathological bronchoconstriction. This effect was measured via bodyplethysmography as reduction of Specific Airway Resistance in healthy subjects. […]

[3] = tested on: Caco-2 cells; assay: Caco-2 permeability test; type: in vitro ADME, human; conditions: 2 μM, 2 h at 37° C.
Experimental: E-3. Further Characterization E-3.1 Caco-2 Permeability Test
The in vitro permeation of a test compound across a Caco-2 cell monolayer is a well-established assay system to predict the permeability from the gastro-intestinal tract (1). The permeability of the compounds of the present invention in such Caco-2 cells was determined as described below:
Human caco-2 cells were seeded on 24-well insert plates and were allowed to grow for 14-16 days. For permeability studies, the test compounds were dissolved in DMSO and diluted to the final test concentration of 2 μM with transport buffer [Hanks' Buffered Salt Solution, Gibco/Invitrogen, further supplemented with glucose and HEPES]. For determination of the apical to basolateral permeability (PappA-B), the test compound solution was added to the apical side of the cell monolayer and transport buffer to the basolateral side of the monolayer; for determination of the basolateral to apical permeability (PappB-A), the test compound solution was added to the basolateral side of the cell monolayer and transport buffer to the apical side of the monolayer. Samples were taken from the donor compartment at the beginning of the experiment to confirm mass balance. After an incubation of 2 h at 37° C., samples were taken from both compartments. Samples were analyzed by LC-MS/MS, and the apparent permeability coefficients were calculated. Lucifer Yellow permeability was assayed for each cell monolayer to ensure cell monolayer integrity, and the permeability of Atenolol (low permeability marker) and Sulfasalazine (marker for active excretion) was determined for each batch as quality control.

[4] = Protein binding via Transil assay, rat plasma; type: in vitro ADME
Experimental: as §1, §2

[5] = tested on: sGC; assay: Efficacy under experimental conditions of oxidative stress (ODQ, L-NAME treatment); type: in vivo
[6] = tested on: PAH-minipig model; assay: PAH-minipig model on top of PAH standard-of-care; type: in vivo; conditions: inhaled; SoC e.g. bosentan, sildenafil, Ilomedin, riociguat
[7] = Protein binding via Transil assay, monkey plasma; type: in vitro ADME
Experimental: as §1, §2

[8] = tested on: thromboxane and hypoxia challenged rats, pigs, and dogs; assay: Disease relevant animal models (thromboxane and hypoxia challenged), inhaled application, PAP; type: in vivo

| Compound | fraction unbound [1] | total specific airway resistance ([2]; 480 μg, 0 D 06 H 00 M) [kPa/sec] | total specific airway resistance ([2]; 2000 μg, 7 D 06 H 00 M) [kPa/sec] | efflux ratio [3] | fraction unbound, times lower than comparative example 1 [4] [times] | efficacy under oxidative stress [5] | effect on elevated PAP on top of PAH standard-of-care [6] | free fraction, times lower than comparative example 1 [7] [times] | effect on elevated PAP [8] |
| --- | --- | --- | --- | --- | --- | --- | --- | --- | --- |
| O=C(O)c1ccc(CCN(CCc2ccccc2OCc2ccc(-c3ccc(C(F)(F)F)cc3)cc2Cl)[C@H]2CCCc3nc(C(=O)O)ccc32)cc1 [example 2, (5S)—{[2-(4-Carboxyphenyl)ethyl][2-(2-{[3-chloro-4′-(trifluoromethyl)biphenyl-4-yl]methoxy}phenyl)-ethyl]amino}-5,6,7,8-tetrahydroquinoline-2-carboxylic acid as Monohydrate II] | 0.00348 | 0.800 ± 0.187 | 0.730 ± 0.151 |  |  |  |  |  |  |
| O=C(O)c1ccc(CCN(CCc2ccccc2OCc2ccc(-c3ccc(C(F)(F)F)cc3)cc2Cl)[C@H]2CCCc3nc(C(=O)O)ccc32)cc1 [comparative example 11, (5S)-5-{[2-(4-carboxyphenyl)ethyl][2-(2-{[3-chloro-4′-(trifluoromethyl)[biphenyl]-4-yl]methoxy}phenyl)ethyl]amino}-5,6,7,8-tetrahydroquinoline-2-carboxylic acid] |  |  |  | does not show an efflux ratio | 1.6 | enhanced | selectively decreased elevated PAP | 2 | selectively decreased elevated PAP |
